# Source: patent US11202836B2, “PSMA targeted conjugate compounds and uses thereof” (CASE WESTERN RESERVE UNIVERSITY, priority 2018, dated 2021)
# Several values for one entry are separate records, joined by “and”; a condition that tells them apart may be missing. Equal values may be shown once. *1 amine or outer side, *2 acyl side, *3 side chain or, on linkers, in order; H or OH if unused. Where a SMILES comes first, the peptide text is derived from it. Bridges are numbered along the chain shown (N, C = ends). Roman numbers before positions name the chains, in order. [ ]: non-standard residue; d: D form. The star is where a group is joined. ξ: configuration not given here. X2 = CN1/C(=C/C=C/C=C/C2=[N+](CCCCCC(=O)*)c3ccc4ccccc4c3C2(C)C)C(C)(C)c2c1ccc1ccccc21; Hexanoyl(6-succinimido-3yl) = O=C1CC([*:1])C(=O)N1CCCCCC(=O)[*:2]; X3 = CC[C@H](C)[C@@H]([C@H](CC(=O)[*:2])OC)N(C)[*:1]; Dolaproine = CO[C@@H]([C@@H]1CCCN1)[C@@H](C)C(=O)O; Dil = CC[C@H](C)[C@H](NC)[C@@H](CC(=O)O)OC; γGlu = O=C(O)[C@H](CCC(=O)[*:2])N[*:1]; PABC = O=C(OCc1ccc(N[*:1])cc1)[*:2]; ξγGlu = O=C(O)C(CCC(=O)[*:2])N[*:1]; X4 = C[C@@H](N*)[C@@H](O)c1ccccc1; X1 = O=C(C1CCC(CN[*:1])CC1)[*:2]; Cit = NC(=O)NCCC[C@H](N)C(=O)O; NMeV = CN[C@H](C(=O)O)C(C)C; ξE = NC(CCC(=O)O)C(=O)O; CO = O=C([*:1])[*:2]; ξK = NCCCCC(N)C(=O)O; Ahx = NCCCCCC(=O)O; ξC = NC(CS)C(=O)O
# Key:
# [1] = Maximum tolerated dose (single i.v. dose); type: in vivo, mice
# Text: Mice were monitored daily for 14 days.
# [2] = test system: orthotopic PC3pip tumors; test: Orthotopic PC3pip tumor survival study; type: in vivo, mice
# Procedure: Surgical orthotopic tumor implantation was performed as previously reported. Tumor growth/size was monitored using Siemens Acuson […] ultrasound scanner. When the tumors were at the appropriate size (5 mm as measured by ultrasound, approximately 2 weeks) animals were given PSMA-1-VcMMAE, PSMA-1-VcMMAE-Cy5.5, or PBS every four days with a total of 5 doses. Tumors were monitored every other day by ultrasound. Each group had five mice.
# [3] = test system: PC3flu cells; test: In vitro cytotoxicity assay (CCK-8, 72 h), PSMA-negative cells; type: cell-based; conditions: relative to PSMA-1-VcMMAE-Cy5.5
# Procedure: (§1) Cells (1,000/well) were seeded in 96-well culture plates the day before treatment. Cells were incubated with various concentrations of drugs for 72 hours and cell viability evaluated by CCK-8 (Dojindo). The concentration required to reach 50% of cell proliferation was determined (IC50) by GraphPad Prism 3.0.
# [4] = as above; type: cell-based; conditions: 72 hours, CCK-8; read-out: IC50, cytotoxicity to PC3flu cells
# Procedure: as §1
# [5] = test system: metastatic PC3pip model; test: Metastatic PC3pip survival study (intracardiac GFP-PC3pip); type: in vivo, mice
# Procedure: Male athymic nude mice were injected into the left ventricle of the heart with 1×10^5 GFP labeled PC3pip cells to generate bone metastasis. One week later mice received 160 nmol/kg PSMA-1-VcMMAE-Cy5.5 or PBS every 4 days with a total of 5 doses and the progression of disease was monitored by GFP imaging. Five mice were used in each group.
# [6] = test system: heterotopic PC3pip tumors; test: Heterotopic PC3pip tumor survival / antitumor study; type: in vivo; conditions: for tumor growth when given every 7 days: model not stated; for lowest dose effectively inhibiting tumor growth: mouse, in vivo
# Text: Male athymic nude mice were implanted subcutaneously with 1×10^6 of PC3pip cells under the right dorsum of the mice. When tumor size reached approximately 100 mm^3 (tumor volume=Length×width^2/2), mice received drugs through tail vein injection. […] Animals were weighed and tumor size measured every other day for 90 days. Cures were defined as no tumor present at end of the 90-day study. When tumors became too large or animals were moribund they were euthanized. Five mice were used in each group.
# [7] = In vitro cytotoxicity assay (CCK-8, 72 h), PSMA-positive cells; type: cell-based; conditions: 72 hours
# Procedure: as §1
# [8] = test system: PC3pip cells; test: as above; type: cell-based; conditions: for potency to kill PC3pip cells in the presence of PSMA-1 ligand: 10 μM of PSMA-1; for effect of protease inhibitor E64 on cell killing potency: co-incubation with 50 μM E64
# Procedure: as §1
# [9] = test system: α-tubulin; test: Immunofluorescence analysis of alpha-tubulin in PC3pip and PC3flu cells; type: cell-based; conditions: 5 nM, 24 hours
# Procedure: Cells on coverslips at about 70% confluency were incubated with 5 nM of MMAE, PSMA-1-VcMMAE-Cy5.5 or PSMA-1-McMMAE-Cy5.5 for 24 hours. Cells were washed and fixed with 4% paraformaldehyde for 10 minutes, permeabilized with 0.1% Triton™ X-100 for 10 minutes, and blocked with 1% BSA for 1 hour at room temperature. Alpha-tubulin (B5-1-2) Alexa Fluor 488 Mouse Monoclonal Antibody (Invitrogen) was then added at 2 μg/mL in 0.1% BSA and incubated for 3 hours at room temperature. Cells were counterstained with DAPI, mounted with Fluor-Mount aqueous mounting solution, and observed under Leica DM4000B fluorescence microscopy at 40×.
# [10] = test system: PC3pip and PC3flu tumors; test: In vivo NIR imaging of mice bearing PC3pip and PC3flu tumors; conditions: 40 nmol/kg i.v.
# Procedure: Under guidelines of the animal care and use committee at Case Western Reserve University (IACUC #150033) 6 to 8-week old male Balb/cathymic nude mice were implanted subcutaneously with 1×10^6 of PC3flu and PC3pip on the left and right dorsum respectively. Mice received 40 nmol/kg of PSMA-1-VcMMAE-Cy5.5 or PSMA-1-McMMAE-Cy5.5 in PBS via tail vein injection when tumors reached 10 mm in diameter. Fluorescence imaging was performed using the Maestro In Vivo Imaging system (Perkin-Elmer). Multispectral images were unmixed into their component spectra (PSMA probes, autofluorescence, and background) to quantitate the average fluorescence intensity associated with the tumors using regions of interest (ROIs) around the tumors.
# [11] = test system: heterotopic C4-2 tumors; test: Heterotopic C4-2 tumor study; parameters: species or system mice; conditions: mouse, in vivo
# Text: To show versatility of the antitumor activity of PSMA-1-VcMMAE-Cy5.5, we tested it in mice bearing heterotopic C4-2 tumors, which are androgen-independent prostate cancer cells endogenously expressing PSMA.
# [12] = biological target: T1, cathepsin B (Homo sapiens, UniProt P07858); test: Enzymatic cleavage by cathepsin B (HPLC); type: in vitro ADME; conditions: human, activated human liver cathepsin B solution; 2 μM conjugate, 37° C.; read-out: half-life in the presence of cathepsin B (converted)
# T1 construct: purchased Anthens Research and Technology; host or cells: human liver (tissue-derived enzyme)
# Procedure: (§2) PSMA-1-VcMMAE-Cy5.5 or PSMA-1-McMMAE-Cy5.5 was added to 500 μL of activated human liver cathepsin B (Anthens Research and Technology) solution (46) to a final concentration of 2 μM and incubated at 37° C. At different time intervals, 40 μL of the solution was taken out into tubes loaded with 1 μL of 1 mM E64 protease inhibitor. The mixture was vortexed and then stored at −80° C. for future HPLC analysis to assess degradation of PSMA-1-VcMMAE-Cy5.5 or PSMA-1-McMMAE-Cy5.5. Studies were performed in triplicate.
# [13] = biological target: T2, human liver cathepsin B (Homo sapiens, UniProt P07858); test: Enzymatic cleavage by cathepsin B (HPLC); type: in vitro ADME; conditions: 2 μM conjugate, 37° C.
# T2 construct: purchased Anthens Research and Technology; host or cells: human liver (tissue-derived enzyme)
# Procedure: as §2
# [14] = Stability of conjugates incubated in PBS without enzyme (HPLC); type: physicochemical; conditions: no enzyme
# Procedure: as §2
# To investigate if PSMA-targeted drug conjugates were cleavable by cathepsin B, the two conjugates were incubated with or without the enzyme and chromatographed by HPLC. When the conjugates were incubated with PBS, both PSMA-1-VcMMAE-Cy5.5 and PSMA-1-McMMAE-Cy5.5 were stable (FIG. 11D).
# [15] = 3820 nmol/kg every 4 days, 5 doses
# [16] = 160 nmol/kg every 4 days, 5 doses
smiles,measurement,setting,value
CC[C@H](C)[C@@H]([C@@H](CC(=O)N1CCC[C@H]1[C@H](OC)[C@@H](C)C(=O)N[C@H](C)[C@@H](O)c1ccccc1)OC)N(C)C(=O)[C@@H](NC(=O)[C@H](C(C)C)N(C)C(=O)OCc1ccc(NC(=O)[C@H](CCCNC(N)=O)NC(=O)[C@@H](NC(=O)CCCCCN2C(=O)CC(SC[C@H](NC(=O)[C@H](CCC(=O)O)NC(=O)[C@H](CCC(=O)O)NC(=O)[C@H](CCC(=O)O)NC(=O)CCCCCNC(=O)C3CCC(CNC(=O)CC[C@H](NC(=O)N[C@@H](CCC(=O)O)C(=O)O)C(=O)O)CC3)C(=O)NCCCCCC(=O)N[C@@H](CCCCN)C(N)=O)C2=O)C(C)C)cc1)C(C)C (stereo partly drawn) [PSMA-1-VcMMAE] (I: {Glu-CO-γGlu}-[X1][Ahx]EEEC[Ahx]K-NH2 / II: V[Cit][PABC][NMeV]V[Dil][Dolaproine]-X4; linker I:6-II:N via Hexanoyl(6-succinimido-3yl); C-terminus assumed),MTD,"[1]; mouse, in vivo, iv, single dose i.v., tumor-free athymic nude mice, 14 days",7.64 µmol/kg
same,MTD relative to MMAE,[1]; single dose,more than 10 fold
same,tumor free mice,"[2]; 3860 nmol/kg, five mice per group",1 mouse
same,tumor growth and survival,"[2]; every four days, 5 doses, significant at 1910 and 3860 nmol/kg",Inhibition of tumor growth and extension of animal survival time
same,increase of IC50 against PC3flu cells on removal of the Cy5.5 moiety,[3],11.1 fold
same,IC50,[4],222 nM
same,survival and body weight,[5]; dose not stated,prolong animal survival time with no body weight loss
same,inhibition of PC3pip tumor growth compared with PC3flu tumor growth,[6]; 955 nmol/kg,significantly more effective
same,animal survival,[6]; [15],all 5 mice survived the 90-day experimental time
same,cure (tumor free at end of 90-day study),[6]; [15],60%
same,tumor growth when given every 7 days,[6],greatly inhibited tumor growth
same,lowest dose effectively inhibiting tumor growth,[6],191 nmol/kg
same,body weight loss,"[6]; up to highest dose tested, 3820 nmol/kg",No body weight loss
same,IC50,"[7]; CCK-8, read-out: IC50, cytotoxicity to PC3pip cells",4.64 nM
same,selectivity ratio,"[7]; PC3flu IC50 over PC3pip IC50, read-out: selectivity, differential cytotoxicity PC3pip vs PC3flu cells",48
same,potency to kill PC3pip cells in the presence of PSMA-1 ligand,[8],reduced to the same potency to kill PC3flu cells
same,ratio of IC50's between PC3pip and PC3flu cells,[8]; 72 hours,48.2
same,effect of protease inhibitor E64 on cell killing potency,[8],susceptible to E64 protease inhibition
same,increase of IC50 against PC3pip cells on removal of the Cy5.5 moiety,[8]; relative to PSMA-1-VcMMAE-Cy5.5,6.2 fold
CC[C@H](C)[C@@H]([C@H](CC(=O)N1CCC[C@H]1[C@H](OC)[C@@H](C)C(=O)N[C@H](C)[C@@H](O)c1ccccc1)OC)N(C)C(=O)[C@@H](NC(=O)[C@H](C(C)C)N(C)C(=O)OCc1ccc(NC(=O)[C@H](CCCNC(N)=O)NC(=O)[C@@H](NC(=O)CCCCCN2C(=O)CC(SCC(NC(=O)C(CCC(=O)O)NC(=O)C(CCC(=O)O)NC(=O)C(CCC(=O)O)NC(=O)CCCCCNC(=O)C3CCC(CNC(=O)CCC(NC(=O)NC(CCC(=O)O)C(=O)O)C(=O)O)CC3)C(=O)NCCCCCC(=O)NC(CCCCNC(=O)CCCCC[N+]3=C(/C=C/C=C/C=C4/N(C)c5ccc6ccccc6c5C4(C)C)C(C)(C)c4c3ccc3ccccc43)C(N)=O)C2=O)C(C)C)cc1)C(C)C (stereo partly drawn) [PSMA-1-VcMMAE-Cy5.5] (I: {ξE-CO-ξγGlu}-[X1][Ahx][ξE][ξE][ξE][ξC][Ahx][ξK](X2)-NH2 / II: V[Cit][PABC][NMeV]V[X3][Dolaproine]-X4; linker I:6-II:N via Hexanoyl(6-succinimido-3yl)),MTD at 14 days,"[1]; male, mouse, in vivo, iv, single dose i.v., tumor-free athymic nude mice, 14 days",0.48 µmol/kg
same,disruption of α-tubulin,[9],selective disruption of tubulin in PC3pip cells but not in PC3flu cells
same,time of peak uptake in PC3pip tumors post-injection,[10],24 h
same,cure at day 90,"[2]; every four days, 5 doses",40%
same,body weight loss,"[2]; mouse, in vivo",No significant body weight loss
same,cure rate,[11],40%
same,weight loss,[11],no weight loss
same,half-life at 2 μM,[12],19.8 min
same,cleavage in the presence of cathepsin B,[13],degraded rapidly
same,stability when incubated with PBS,[14],stable
same,animal survival,[5]; [16],all 5 treated mice survived the 90-day experimental period
same,body weight loss,[5]; [16],no significant body weight loss
same,response (no GFP signal),[5]; [16],100%
same,cure rate (no tumors at end of study),"[6]; 160 nmol/kg every 4 days, 5 doses, 90 days",60%
same,tumor growth,"[6]; 160 nmol/kg i.v. every 4 days, 5 doses",effectively inhibited tumor growth as early as day 6
same,tumor growth when given every 7 days,[6],greatly inhibited tumor growth
same,lowest dose effectively inhibiting tumor growth,[6],80 nmol/kg
same,potency to kill PC3pip cells in the presence of PSMA-1 ligand,[8],reduced to the same potency to kill PC3flu cells
same,IC50,"[8]; 72 hours, CCK-8",0.84 nM and 0.75 nM
same,effect of protease inhibitor E64 on cell killing potency,[8],reduced the potency
